In publication PMC5253331 (Biochemical and biophysical research communications, 2016):

Legend:
[1] = system: hPD-L1 and CHO tumors; test: Ex vivo biodistribution and blocking in NSG mice with hPD-L1 and CHO tumors; set-up: species or system mouse; conditions: co-injected with excess WL12 (50 μg, 2 mg/kg), 2 h
[2] = system: MDAMB231 and SUM149 cells; type: cell-based, human; conditions: MDAMB231 high, SUM149 low PD-L1 expression
[3] = system: hPD-L1 cells (CHO stably expressing human PD-L1) vs CHO cells; test: In vitro binding/uptake of [64Cu]WL12 in hPD-L1 and CHO cells; type: cell-based, Chinese hamster
[4] = target: recombinant human PD-L1(B7-H1)-His-tag protein (human) (UniProt Q9NZQ7); test: AlphaScreen or HTRF
Chain of recombinant human PD-L1(B7-H1)-His-tag protein (human) (Q9NZQ7 19-238): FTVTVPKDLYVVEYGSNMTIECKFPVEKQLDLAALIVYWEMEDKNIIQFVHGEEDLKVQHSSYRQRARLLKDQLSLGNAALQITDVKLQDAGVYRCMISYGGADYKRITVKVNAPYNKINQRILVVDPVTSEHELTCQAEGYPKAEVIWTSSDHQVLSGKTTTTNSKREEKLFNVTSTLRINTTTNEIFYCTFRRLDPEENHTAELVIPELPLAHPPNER

[5] = target: human PD-L1 on CHO cells stably expressing human PD-L1 (human) (UniProt Q9NZQ7); test: ex vivo biodistribution with blocking dose
Chain of human PD-L1 on CHO cells stably expressing human PD-L1 (human) (Q9NZQ7 19-290): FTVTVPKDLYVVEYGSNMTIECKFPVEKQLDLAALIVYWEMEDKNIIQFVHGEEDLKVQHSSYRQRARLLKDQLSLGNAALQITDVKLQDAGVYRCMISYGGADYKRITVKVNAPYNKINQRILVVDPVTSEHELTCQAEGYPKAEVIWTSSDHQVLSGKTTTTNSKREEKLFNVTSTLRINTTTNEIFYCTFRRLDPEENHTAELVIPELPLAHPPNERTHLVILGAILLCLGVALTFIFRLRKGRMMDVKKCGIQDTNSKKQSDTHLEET

[6] = target: human PD-L1 on CHO cells stably expressing human PD-L1 (human) (UniProt Q9NZQ7); test: PET imaging and ex vivo biodistribution
[7] = target: human PD-L1 on CHO cells stably expressing human PD-L1 (human) (UniProt Q9NZQ7); test: radioligand binding

## CCCC[C@H]1C(=O)N(C)[C@@H](CCCC)C(=O)N[C@@H](CCCNC(=O)CCC(C(=O)O)N2CCN(CC(=O)O)CCN(CC(=O)O)CCN(CC(=O)O)CC2)C(=O)N[C@H](C(=O)NCC(N)=O)CSCC(=O)N[C@@H](Cc2ccc(O)cc2)C(=O)N(C)[C@@H](C)C(=O)N[C@@H](CC(N)=O)C(=O)N2CCC[C@H]2C(=O)N[C@@H](Cc2c[nH]cn2)C(=O)N[C@@H](CC(C)C)C(=O)N2C[C@H](O)C[C@H]2C(=O)N[C@@H](Cc2c[nH]c3ccccc23)C(=O)N[C@@H](CO)C(=O)N[C@@H](Cc2cn(C)c3ccccc23)C(=O)N1C (some centres unmarked) [[^64Cu]WL12, metal not drawn]
[1]
  change in %ID/g in control CHO tumors on blocking: no significant difference
  change in kidney uptake on blocking: reduced uptake
[2]
  uptake of radioactivity in MDAMB231 cells compared to SUM149 cells: Two-fold higher
[3]; hPD-L1 cells incubated with [64Cu]WL12 for 1 h
  uptake of the incubated dose in hPD-L1 cells: > 50%
[3]; hPD-L1 cells, 1 μM blocking dose of WL12
  reduction in bound [64Cu]WL12 in the presence of blocking dose of WL12: > 95%
[3]; incubation 1 h
  increase in bound radioactivity in hPD-L1 cells compared to negative control CHO cells: 43 fold

## WL12 (peptide)
[4]
  IC50: 22 nM
[5]
  percent reduction in %ID/g of [64Cu]WL12 in hPD-L1 tumors with excess WL12: > 75%

## WL12-Cu (peptide)
[4]
  IC50: 2.9 nM

## [64Cu]WL12 (peptide)
[6]
  tumor uptake at 1 h (%ID/g): 14.9 %ID/g
[7]
  percent uptake of the incubated dose: > 50%
